Measurements from ChEMBL document CHEMBL1147300, “Plant antiviral agents, VI. Isolation of antiviral phenolic glucosides from Populus cultivar Beaupre by droplet counter-current chromatography” (1989).
Active and inactive are the calls of the source. The rule behind the calls is not given here.

Experiments:
Coxsackievirus [1] = assay: Antiviral activity against Coxsackievirus infected in african green monkey Vero cells assessed as ratio of viral titer in absence to presence of compound at 5 ug/ml by 50% endpoint titration technique; assay type: functional
Human alphaherpesvirus 1 = assay: Antiviral activity against Herpes simplex virus type 1 infected in african green monkey Vero cells assessed as ratio of viral titer in absence to presence of compound at 500 ug/ml by 50% endpoint titration technique; assay type: functional, organism-based
Measles morbillivirus = assay: Antiviral activity against Measles virus infected in african green monkey Vero cells assessed as ratio of viral titer in absence to presence of compound at 500 ug/ml by 50% endpoint titration technique; assay type: functional, organism-based
Enterovirus C [2] = assay: Antiviral activity against Poliovirus infected in african green monkey Vero cells assessed as ratio of viral titer in absence to presence of compound at 5 ug/ml by 50% endpoint titration technique; assay type: functional
Semliki Forest virus [3] = assay: Antiviral activity against Semliki forest virus infected in african green monkey Vero cells assessed as ratio of viral titer in absence to presence of compound at 500 ug/ml by 50% endpoint titration technique; assay type: functional, organism-based
Coxsackievirus [4] = assay: Antiviral activity against Coxsackievirus infected in african green monkey Vero cells assessed as ratio of viral titer in absence to presence of compound at 500 ug/ml by 50% endpoint titration technique; assay type: functional, organism-based
Enterovirus C [5] = assay: Antiviral activity against Poliovirus infected in african green monkey Vero cells assessed as ratio of viral titer in absence to presence of compound at 25 ug/ml by 50% endpoint titration technique; assay type: functional
Microsporum canis = assay: Antifungal activity against Microsporum canis at 500 ug/ml; assay type: functional, organism-based
[6] = tested on: Trichophyton mentagrophytes; assay: Antifungal activity against Trichophyton mentagrophytes at 500 ug/ml; assay type: functional, organism-based
Trichophyton rubrum = assay: Antifungal activity against Trichophyton rubrum at 500 ug/ml; assay type: functional, organism-based
Aspergillus niger = assay: Antifungal activity against Aspergillus niger at 500 ug/ml; assay type: functional, organism-based
Semliki Forest virus [7] = assay: Antiviral activity against Semliki forest virus infected in african green monkey Vero cells assessed as ratio of viral titer in absence to presence of compound at 50 ug/ml by 50% endpoint titration technique; assay type: functional

| Compound | Ratio (Coxsackievirus [1]) | Activity (Human alphaherpesvirus 1) | Activity (Measles morbillivirus) | Ratio (Enterovirus C [2]) | Activity (Semliki Forest virus [3]) | Activity (Coxsackievirus [4]) | Ratio (Enterovirus C [5]) | Activity (Microsporum canis) | Activity [6] | Activity (Trichophyton rubrum) | Activity (Aspergillus niger) | Ratio (Semliki Forest virus [7]) |
| --- | --- | --- | --- | --- | --- | --- | --- | --- | --- | --- | --- | --- |
| COc1c(-c2ccc(O)c(O)c2)oc2cc(O)cc(O)c2c1=O [3-O-METHYLQUERCETIN] | 10000000 | inactive | inactive | 100000000 | inactive |  |  |  |  |  |  |  |
| OCc1ccccc1O[C@@H]1O[C@H](CO)[C@@H](O)[C@H](O)[C@H]1O [SALICIN] |  | inactive | inactive |  | inactive | inactive | 1000 | inactive | inactive | inactive | inactive |  |
| O=C(OCc1cc(O)ccc1O[C@@H]1O[C@H](CO)[C@@H](O)[C@H](O)[C@H]1O)c1ccccc1 [SALIREPOSIDE] |  | inactive | inactive |  |  | inactive | 10000 | inactive | inactive | inactive | inactive | 10000 |
